Experimental data reported in ChEMBL document CHEMBL1129422, “Syntheses and structure-activity relationships of the second-generation antitumor taxoids: exceptional activity against drug-resistant cancer cells” (J Med Chem, 1996).
pIC50: −log10 of the molar value.

Legend:
Assay type in all cases: functional, cell-based
A549 = experiment: Concentration required to inhibit growth of human tumor A549 (NSCL) cell line.
A121 = experiment: Concentration required to inhibit growth of human tumor A121 (ovarian) cell line.
HT-29 = experiment: Concentration required to inhibit growth of human tumor HT-29 (colon) cell line.
MCF7 [1] = experiment: Concentration required to inhibit growth of human tumor MCF-7 (breast) cell line.
MCF7 [2] = experiment: Concentration required to inhibit growth of human tumor […] (breast) cell line.

| Structure (SMILES) | pIC50 (A549) | pIC50 (HT-29) | pIC50 (MCF7 [1]) | pIC50 (MCF7 [2]) | pIC50 (A121) |
| --- | --- | --- | --- | --- | --- |
| CCCCCC(=O)O[C@H]1C(=O)[C@@]2(C)[C@H]([C@H](OC(=O)c3ccccc3)[C@]3(O)C[C@H](OC(=O)[C@H](O)[C@H](C=C(C)C)NC(=O)OC(C)(C)C)C(C)=C1C3(C)C)[C@]1(OC(C)=O)CO[C@@H]1C[C@@H]2O | 9.24 | 9.05 | 9.40 | 7.76 | 9.30 |
| CC(=O)O[C@@]12CO[C@@H]1C[C@H](O)[C@@]1(C)C(=O)[C@H](OC(=O)C3CC3)C3=C(C)[C@@H](OC(=O)[C@H](O)[C@H](CC(C)C)NC(=O)OC(C)(C)C)C[C@@](O)([C@@H](OC(=O)c4ccccc4)[C@H]21)C3(C)C | 8.96 | 9.11 | 9.29 | 8.37 | 9.29 |
| CC(=O)O[C@@]12CO[C@@H]1C[C@H](O)[C@@]1(C)C(=O)[C@H](OC(=O)NC3CCCCC3)C3=C(C)[C@@H](OC(=O)[C@H](O)[C@H](C=C(C)C)NC(=O)OC(C)(C)C)C[C@@](O)([C@@H](OC(=O)c4ccccc4)[C@H]21)C3(C)C | 9.70 | 9.34 | 9.48 | 7.32 | 9.55 |
| COC(=O)O[C@H]1C(=O)[C@@]2(C)[C@H]([C@H](OC(=O)c3ccccc3)[C@]3(O)C[C@H](OC(=O)[C@H](O)[C@H](CC(C)C)NC(=O)OC(C)(C)C)C(C)=C1C3(C)C)[C@]1(OC(C)=O)CO[C@@H]1C[C@@H]2O | 9.46 | 9.36 | 9.55 | 8.19 | 9.74 |
| C/C=C/C(=O)O[C@H]1C(=O)[C@@]2(C)[C@H]([C@H](OC(=O)c3ccccc3)[C@]3(O)C[C@H](OC(=O)[C@H](O)[C@H](C=C(C)C)NC(=O)OC(C)(C)C)C(C)=C1C3(C)C)[C@]1(OC(C)=O)CO[C@@H]1C[C@@H]2O | 8.77 | 9.22 | 9.59 | 8.47 | 9.35 |
| CCN(CC)C(=O)O[C@H]1C(=O)[C@@]2(C)[C@H]([C@H](OC(=O)c3ccccc3)[C@]3(O)C[C@H](OC(=O)[C@H](O)[C@H](C=C(C)C)NC(=O)OC(C)(C)C)C(C)=C1C3(C)C)[C@]1(OC(C)=O)CO[C@@H]1C[C@@H]2O | 9.70 | 9.40 | 9.70 | 8.04 | 9.77 |
| CC(=O)O[C@@]12CO[C@@H]1C[C@H](O)[C@@]1(C)C(=O)[C@H](OC(=O)NC3CCCCC3)C3=C(C)[C@@H](OC(=O)[C@H](O)[C@H](CC(C)C)NC(=O)OC(C)(C)C)C[C@@](O)([C@@H](OC(=O)c4ccccc4)[C@H]21)C3(C)C | 8.43 | 8.30 | 8.80 | 7.48 | 8.30 |
| CC(=O)O[C@@]12CO[C@@H]1C[C@H](O)[C@@]1(C)C(=O)[C@H](OC(=O)C3CCCCC3)C3=C(C)[C@@H](OC(=O)[C@H](O)[C@H](C=C(C)C)NC(=O)OC(C)(C)C)C[C@@](O)([C@@H](OC(=O)c4ccccc4)[C@H]21)C3(C)C | 9.12 | 8.98 | 9.34 | 7.65 | 9.30 |
| CC(=O)O[C@H]1C(=O)[C@@]2(C)[C@H]([C@H](OC(=O)c3ccccc3)[C@]3(O)C[C@H](OC(=O)[C@H](O)[C@@H](NC(=O)c4ccccc4)c4ccccc4)C(C)=C1C3(C)C)[C@]1(OC(C)=O)CO[C@@H]1C[C@@H]2O [PACLITAXEL] |  |  |  |  | 8.20 |

Now from value to compound, other results behind:

| pIC50 (A549) | pIC50 (HT-29) | pIC50 (MCF7 [1]) | pIC50 (MCF7 [2]) | Structure (SMILES) | pIC50 (A121) |
| --- | --- | --- | --- | --- | --- |
| 9.01 | 8.49 | 8.40 | 7.44 | CC(=O)O[C@H]1C(=O)[C@@]2(C)[C@H]([C@H](OC(=O)c3ccccc3)[C@]3(O)C[C@H](OC(=O)[C@H](O)[C@H](CC(C)C)NC(=O)OC(C)(C)C)C(C)=C1C3(C)C)[C@]1(OC(C)=O)CO[C@@H]1C[C@@H]2O | 8.42 |
| 9.15 | 8.92 | 9.40 | 7.70 | CNC(=O)O[C@H]1C(=O)[C@@]2(C)[C@H]([C@H](OC(=O)c3ccccc3)[C@]3(O)C[C@H](OC(=O)[C@H](O)[C@H](C=C(C)C)NC(=O)OC(C)(C)C)C(C)=C1C3(C)C)[C@]1(OC(C)=O)CO[C@@H]1C[C@@H]2O | 8.92 |
| 9.05 | 9.05 | 9.43 | 6.91 | CO[C@H]1C(=O)[C@@]2(C)[C@H]([C@H](OC(=O)c3ccccc3)[C@]3(O)C[C@H](OC(=O)[C@H](O)[C@H](C=C(C)C)NC(=O)OC(C)(C)C)C(C)=C1C3(C)C)[C@]1(OC(C)=O)CO[C@@H]1C[C@@H]2O | 9.15 |
| 9.30 | 9.30 | 9.40 | 7.98 | CC(=O)O[C@@]12CO[C@@H]1C[C@H](O)[C@@]1(C)C(=O)[C@H](OC(=O)CC(C)(C)C)C3=C(C)[C@@H](OC(=O)[C@H](O)[C@H](C=C(C)C)NC(=O)OC(C)(C)C)C[C@@](O)([C@@H](OC(=O)c4ccccc4)[C@H]21)C3(C)C | 9.47 |
| 9.44 | 9.28 | 9.34 | 7.19 | CC(=O)O[C@@]12CO[C@@H]1C[C@H](O)[C@@]1(C)C(=O)[C@H](OC(=O)NC(C)C)C3=C(C)[C@@H](OC(=O)[C@H](O)[C@H](C=C(C)C)NC(=O)OC(C)(C)C)C[C@@](O)([C@@H](OC(=O)c4ccccc4)[C@H]21)C3(C)C | 9.47 |
| 9.40 | 9.22 | 9.40 | 8.07 | CC(=O)O[C@@]12CO[C@@H]1C[C@H](O)[C@@]1(C)C(=O)[C@H](OC(=O)CC(C)C)C3=C(C)[C@@H](OC(=O)[C@H](O)[C@H](C=C(C)C)NC(=O)OC(C)(C)C)C[C@@](O)([C@@H](OC(=O)c4ccccc4)[C@H]21)C3(C)C | 9.22 |
| 9.66 | 9.26 | 9.44 | 7.06 | CCCNC(=O)O[C@H]1C(=O)[C@@]2(C)[C@H]([C@H](OC(=O)c3ccccc3)[C@]3(O)C[C@H](OC(=O)[C@H](O)[C@H](C=C(C)C)NC(=O)OC(C)(C)C)C(C)=C1C3(C)C)[C@]1(OC(C)=O)CO[C@@H]1C[C@@H]2O | 9.47 |
| 9.49 | 9.52 | 9.85 | 8.28 | COC(=O)O[C@H]1C(=O)[C@@]2(C)[C@H]([C@H](OC(=O)c3ccccc3)[C@]3(O)C[C@H](OC(=O)[C@H](O)[C@H](C=C(C)C)NC(=O)OC(C)(C)C)C(C)=C1C3(C)C)[C@]1(OC(C)=O)CO[C@@H]1C[C@@H]2O | 9.64 |
| 9.30 | 9.22 | 9.44 | 8.24 | CC(=O)O[C@@]12CO[C@@H]1C[C@H](O)[C@@]1(C)C(=O)[C@H](OC(=O)N(C)C)C3=C(C)[C@@H](OC(=O)[C@H](O)[C@H](CC(C)C)NC(=O)OC(C)(C)C)C[C@@](O)([C@@H](OC(=O)c4ccccc4)[C@H]21)C3(C)C | 9.40 |
| 9.28 | 9.28 | 9.46 | 8.55 | CCC(=O)O[C@H]1C(=O)[C@@]2(C)[C@H]([C@H](OC(=O)c3ccccc3)[C@]3(O)C[C@H](OC(=O)[C@H](O)[C@H](CC(C)C)NC(=O)OC(C)(C)C)C(C)=C1C3(C)C)[C@]1(OC(C)=O)CO[C@@H]1C[C@@H]2O | 9.39 |
